Results on 2 compounds are retold here after PMC10809383, “Synthesis and migrastatic activity of cytochalasin analogues lacking a macrocyclic moiety” (RSC Medicinal Chemistry, 2023).

“Also recorded” adds a separate entry of the source.

Data set [1] deals with human fibroblasts (MRC-5). Put plainly: WST-1 viability assay, MRC-5 cells. Type of data set: cell-based. As to conditions: MRC5, 72 h treatment, WST-1 assay, 2D culture, 0–50 μM. The method, then:
(§1) In addition, the cytotoxic activity of compounds 17, 20, and 22–30 was assessed by the WST-1 viability assay using BLM (human melanoma) and MRC-5 (noncancerous human fibroblasts) cells growing in a monolayer (2D cultures, Table 2) after 72 h of treatment.
(§2) Human cells from melanoma (BLM) and human lung fibroblasts (MRC-5, Merck, USA) were used to evaluate in vitro cytotoxicity of the prepared compounds. The cells were maintained at the exponential phase of growth (passaging done by trypsin–EDTA solution) in DMEM and MEM, for BLM and MRC-5, respectively, with stable L-glutamine and supplemented with 10% fetal bovine serum (Thermo Fisher Scientific, USA). The cells were kept in an incubator at 37 °C, 5% CO2 in the atmosphere, and 95% humidity.
(§3) The compound cytotoxicity was determined by a WST-1 viability assay (Merck, USA). The amount of 5000 BLM and MRC-5 cells were seeded into individual wells of 96-well plates in 100 μL of cell cultivation media and maintained in an incubator for 16 h. After this period, the cells were treated with a concentration series (0–50 μM) of the tested compounds diluted in another 100 μL of cultivation media, which was added to the wells containing cells and incubated for 72 h. Then, BLM and MRC-5 cell viability was evaluated by WST-1 agent (5% v/v solution in phenol red-free DMEM media), i.e., the cell media was discarded and 100 μL of WST-1 solution was added. After 2 h incubation, the absorbance of formazan, derived from the WST-1 tetrazolium salt was determined spectrophotometrically at 450 nm (reference at 650 nm) by a UV-vis spectrophotometer (Bio-Rad, USA). Untreated cells, cells treated only with a vehicle, and cells treated with cytochalasin B (1) and D (2) served as controls. The measurement occurred in three independent repetitions each of which consisted of three technical replicates. The data were plotted as dose–response curves from which the half-maximal inhibitory concentrations (IC50) were calculated using AAT Bioquest.
(In general: Tetrazolium assays rely on reduction of a dye to a coloured formazan, in cell work by metabolically active cells.)

In the next data set the target is T1, actin (Oryctolagus cuniculus, UniProt P68135).
T1 construct: purchased Cytoskeleton, Inc, Denver, CO
Put plainly: Actin polymerization assay (pyrene-actin, Actin Polymerization Biochem Kit). It counts as biochemical. Particulars: 10 μM, in vitro. Here is the method:
To further ascertain the compounds' interference with actin polymerization, the active compounds, along with CytB (1) as a positive control and compound 26 as a negative control, were subjected to an in vitro actin polymerization assay (Fig. 2B). […] This correlation between actin inhibitory activity and migrastatic effect underscores the pivotal role of actin polymerization inhibition in mediating the observed migrastatic activity.
Actin polymerization assay was performed using Actin Polymerization Biochem Kit™ (Cytoskeleton, Inc, Denver, CO) according to the manufacturer protocol. Briefly, 25 μL of G-buffer containing labelled pyrene-actin (0.4 mg mL^−1) and 2.48 μL of either DMSO (10 μM, control) or inhibitor (10 μM) was added in […] well plate. Actin polymerization was initiated by the addition of 2.48 μL of 10× actin polymerization buffer and analysed in time until fluorescent signal plateau was reached using a spectrophotometer (Infinite 200 PRO, Tecan Life Sciences, Tecan Group Ltd., Zürich, CHE). The fluorescence emission intensity of actin polymerization was measured at 420 nm and 360 nm was used as excitation wavelength. Statistical analysis was performed in GraphPad using one-way ANOVA. Measurements were performed in three independent repetitions each consisting of at least three technical replicates. For a representative graph from this assay, see ESI, ^† Fig. S2.

Data set [2] relates to human melanoma cell line BLM. Briefly: Spheroid invasion assay (migrastatic activity). It counts as cell-based. As to conditions: 24 h; for migrastatic activity (cell migration, in words): 10 μM, BLM spheroid invasion; for rel. spheroid area: 10 µM, BLM spheroids in collagen, DMSO control 1.02. The method, then:
Compounds 17, 20, and 22–30 were screened for their migrastatic activity using a spheroid invasion assay with the human melanoma cell line BLM.[46] Spheroids were formed and subsequently treated with cytochalasin analogues at a concentration of 10 μM for 24 h. CytB (1) and CytD (2) served as reference compounds for comparison. There was no significant increase in cell migration observed for any of the compounds tested. […] However, the effect was less profound than that of the reference compounds 1 and 2.
The spheroid invasion assay was performed following a previously published protocol.[63] Briefly, BLM cells were grown as spheroids using 3D Petri Dish (Microtissues). After 2 days of spheroid formation, 1.5 mg mL^−1 collagen solution (rat tail, collagen type I) was prepared (1.5 mg mL^−1 rat-tail collagen, 1× DMEM, 1% (v/v) FBS) and added at the bottom of a 96-well plate. Spheroids were embedded into the collagen (one spheroid per well) and covered with another layer of the gel. Collagen was polymerized at 37 °C and subsequently overlaid with a cultivation medium. Images of spheroids were taken with Leica TCS SP2 microscope (5×/0.15 dry objective; LAS X Life Science Microscope software) immediately after their seeding into collagen and again after 24 h. The area of the spheroids at 0 and 24 h was measured using FiJi (Rasband, W.S., ImageJ, NIH, Bethesda, MD, USA). Cellular invasiveness was determined as an increase in spheroid area within 24 h. Three independent experiments were conducted with at least 8 spheroids analysed in each experiment. Statistical analysis was performed in GraphPad using one-way ANOVA. For numeric data and representative images from this assay, see ESI, ^† Table S1 and Fig. S1.
Table S1: Spheroid invasion assay with BLM cell line at 10 µM concentration, 24 h.
Figure S1: Representative images of BLM cell spheroid invasion assay with or without
inhibitor. Images were taken at 0 h and 24 h. using a Leica TCS SP2 microscope (5x/0.15
dry objective). DMSO (first column) was used as a control. Scale bar 500 µm.

In data set [3] the test system is HT1080 fibrosarcoma cells. Briefly: Fluorescence microscopy of actin cytoskeleton (SPY650-FastAct time-lapse). Type of data set: cell-based. As to conditions: for effect on the actin cytoskeleton: 10 μM. The method, then: Next, we conducted experiments to assess the impact of compound 24, CytB (1) and CytD (2) on the actin cytoskeleton using fluorescence microscopy in HT1080 fibrosarcoma cells (Fig. 3). […] Therefore, we increased the concentration up to 50 μM.
HT1080 cells were seeded into 12-well glass bottom plate and stained with SPY650-FastAct™ following manufacturer's protocol. Untreated cells (control) were imaged every 20 s for 15 min using Leica TCS SP2 microscope (40×/0.6 dry objective). Afterwards, an inhibitor (compound 24 at 10 μM; 50 μM or compound 1 and 2 at 10 μM) was added into the same well and its effect was recorded for 15 min (20 s/image). All video recordings were analyzed using FiJi (Rasband, W.S., ImageJ, NIH, Bethesda, MD, USA).

For data set [4], the system named is human melanoma cells (BLM). Briefly: WST-1 viability assay, BLM cells. Particulars: for IC50: Homo sapiens, 72 h treatment, WST-1 assay, 2D culture, 0–50 μM. It counts as cell-based. Here is the method:
as §1, §2, §3

With `C=C1[C@@H](C)[C@H]2[C@H](Cc3ccccc3)NC(=O)[C@@]2(C(=O)OC)[C@@H](CCOCCc2ccccc2)[C@@H]1O` [Compound 24, Methyl (1S,3aS,4R,5S,7S,7aR)-1-benzyl-5-hydroxy-7-methyl-6-methylene-3-oxo-4-(2-phenethoxyethyl)octahydro-3aH-isoindole-3a-carboxylate], the half-inhibitory concentration (IC50) in data set [1] and in data set [4] was greater than 50 µM each time. On actin, the “inhibition of actin polymerization (in words)” value is “inhibit actin polymerization; also recorded: inhibition of actin polymerization”. Besides, the “migrastatic activity (cell migration, in words)” value in data set [2] is “significant in vitro migrastatic activity; also recorded: significant decrease in cell migration; also recorded: most potent migrastatic activity”. The compound further returned a rel. spheroid area in data set [2] of 0.46. Further, the “effect on the actin cytoskeleton” value in data set [3] (after 5 min) was “observable alterations became apparent”; in data set [3] (within 2 min of addition), “no effect was observed”. Besides, in data set [3] (50 μM, after 2 min), the “change in cell morphology” value is “visible change in cell morphology was observed”. In addition, the “cytotoxicity (in words)” value in data set [4] (WST-1, up to 50 μM, cell line not given) is “non-cytotoxic”.

Turning to `CC1=C[C@H](CCOCCc2ccccc2)[C@]2(CO)C(=O)N[C@@H](Cc3ccccc3)[C@@H]2[C@@H]1C` [Compound 30, (3S,3aR,4S,7S,7aS)-3-Benzyl-7a-(hydroxymethyl)-4,5-dimethyl-7-(2-phenethoxyethyl)-2,3,3a,4,7,7a-hexahydro-1H-isoindol-1-one], the IC50 in data set [1] and in data set [4] was greater than 50 µM throughout. Besides, the “inhibition of actin polymerization (in words)” value at actin is “inhibit actin polymerization”. In addition, the “migrastatic activity (cell migration, in words)” value in data set [2] was “significant decrease in cell migration; also recorded: modest migrastatic activity”. Also, the rel. spheroid area in data set [2] is reported as 0.50.

A word on the IC50: it is the concentration needed to halve the response being measured.
